Here are results for one compound from patent US20230181614A1, “ADMINISTRATION OF CITICOLINE TO IMPROVE COGNITIVE PERFORMANCE, ATTENTIONAL PERFORMANCE, AND MOTOR FUNCTION” (KYOWA HAKKO BIO CO., LTD., priority 2014, published 2023).

The assay concerns Healthy subjects, ages 13-18. As to the kind of experiment: Continuous Performance Test (CPT). The assay is classed as in vivo, human. Conditions: for CPT Commissions V1, Mean / CPT Omissions V1, Mean / CPT Hit Reaction Time V1, Mean: Visit 1. An excerpt:
Study participants were screened by telephone prior to study enrollment. Healthy subjects, ages 13-18, with no significant medical conditions and no history of co-morbid psychiatric disorder, current Axis I or II diagnosis, or previous participation in a pharmacotherapeutic trial, were selected. Use of any psychotropic medication or any previous head injury resulting in loss of consciousness for 5 or more minutes were used as exclusion criteria. While no participant met criteria for a neuropsychiatric disorder at enrollment, clinical assessments were still completed throughout the study to evaluate changes in mood state. In addition, self-reports of sleep habits, lifestyle, and exercise routines were also administered at baseline as well as at each study visit to assess changes in health habits during study participation. Following the completion of Visit 1 assessment, participants were given their 28-day supply of citicoline (250 mg or 500 mg) or placebo, which was randomly assigned. They were instructed to take one capsule a day every day for the next 28 days. Visit 2 occurred fourteen days after Visit 1. At Visit 2, the remaining study pills were counted and participant dosage calendars were checked to ensure compliance with the protocol. Additional neuropsychological measures and clinical assessments were administered during this visit. Participants returned for Visit 3 fourteen days later, on the 28th day of their study participation. The pill bottle and the dosage calendar were collected from each participant. Urine and blood were again obtained. Participants also participated in similar clinical and neuropsychological testing and clinical measures that were given during visit 1. The CPT is a test of sustained attention that has been adapted for computerized administration. The test requires participants to attend vigilantly to a series of target and distracter stimuli for a 14-minute duration. […] The CPT was administered at all three visits.

Where [1] appears, read: 250 mg/day group, Visit difference score.
Setting [2] is: 250 mg/day group, Visit 3, in ms (unit assumed).
Where [3] appears, read: 250 mg/day group, visit difference score V3-V1.
[4] abbreviates: 500 mg/day group, Visit difference score.

As for `C[N+](C)(C)CCOP(=O)(O)OP(=O)([O-])OC[C@H]1O[C@@H](n2ccc(N)nc2=O)[C@H](O)[C@@H]1O` [citicoline, Cytidine 5′-diphosphocholine], the “CPT Commissions V1, Mean” value runs as follows: (250 mg/day group) 18.22; (500 mg/day group) 18.79. For the same compound, the “CPT Omissions V1, Mean” value by setting is: (250 mg/day group) 9.59; (500 mg/day group) 8.42. The “CPT Hit Reaction Time V1, Mean” value is, setting by setting: (250 mg/day group, in ms (unit assumed)) 362.62; (500 mg/day group, in ms (unit assumed)) 363.58. The “V3-V1 CPT Commissions, Mean” value is on record as -1.26 under setting [1], -1.26 under setting [3] and -3.88 under setting [4]. Also, the “V3-V1 CPT Omissions, Mean” value is 4.93 under setting [1], 4.93 under setting [3] and 5.33 under setting [4]. The “V3-V1 CPT Hit Reaction Time, Mean” value by setting is: (250 mg/day group, Visit difference score, in ms (unit assumed)) 34.57; (250 mg/day group, visit difference score V3-V1, in ms (unit assumed)) 34.57; (500 mg/day group, Visit difference score, in ms (unit assumed)) 27.71. In addition, the “CPT Commissions V3, Mean” value is, setting by setting: (250 mg/day group, Visit 3) 16.96; (500 mg/day group, Visit 3) 14.92. In addition, the “CPT Omissions V3, Mean” value amounted to 14.52 (250 mg/day group, Visit 3) and 13.75 (500 mg/day group, Visit 3). Besides, the “V3 CPT Commissions (Mean)” value (250 mg/day group, Visit 3) is given as 16.96. The “V3 CPT Omissions (Mean)” value (250 mg/day group, Visit 3) is 14.52. The “CPT Hit Reaction Time V3, Mean” value is, setting by setting: under setting [2], 397.19; (500 mg/day group, Visit 3, in ms (unit assumed)) 391.30. Besides, the “V3 CPT Hit Reaction Time (Mean)” value under setting [2] amounted to 397.19.
